Measured values as given in patent publication US11985974B2, “Antimicrobial ferulic acid derivatives and uses thereof” (WISCONSIN ALUMNI RESEARCH FOUNDATION, priority 2014, dated 2024).

Test system: yeast
Assay: not given
Conditions: against yeast, literature values; cited from earlier work
In the case of `O=S(=O)([O-])[O-].[Cu+2]` [copper sulfate], the IC50 is listed as 2400 µM.
In the case of `c1ccc2[nH]c(-c3cscn3)nc2c1` [thiabendazole], the IC50 is listed as 607 µM.
For `CO/C=C(/C(=O)OC)c1ccccc1COc1cccc(C(F)(F)F)n1` [picoxystrobin], the IC50 is listed as 308 µM.
For `CCCN(CCOc1c(Cl)cc(Cl)cc1Cl)C(=O)n1ccnc1` [prochloraz], the IC50 is listed as 132 µM.
In the case of `NC(=O)OC[C@H](O)[C@@H](O)[C@H](N)C(=O)N[C@H](C(=O)O)[C@H]1O[C@@H](n2cc(C(=O)O)c(=O)[nH]c2=O)[C@H](O)[C@@H]1O` [polyoxin D], the IC50 is listed as 340 µM.
For `O=C1C2CC=CCC2C(=O)N1SC(Cl)(Cl)Cl` (stereo not drawn) [captan], the IC50 is given as 19 µM.

Test system: yeast cells
Assay: Cell leakage assay (FungaLight, flow cytometry)
Type: cell-based, Saccharomyces cerevisiae
Conditions: actively growing cells (YPD), 4 h
Experimental: A FungaLight Cell Viability Assay (L34952; Invitrogen) using a Guava Flow Cytometer (Millipore) was used to determine if poacic acid caused membrane damage. The population of stained cells (damaged integrity) vs. nonstained cells can be determined by flow cytometry. Caspofungin (50 ng/mL) was included as a positive control. MMS and DMSO were included as a noncell wall-targeting control and a solvent control, respectively. To test the effects of the compounds on both active and arrested cells, log-phase cultures were washed with 1×PBS and resuspended to an OD0.5 in either YPD medium or YP (no carbon source) in the presence of the drugs (n=3) for 4 h at 30° C. The cells were then stained and immediately read by flow cytometry. One-way ANOVA and Tukey's test were used to calculate the difference between drug treatments among cells with arrested growth.
With `COS(C)(=O)=O` [MMS, methyl methanesulfonate] the “cell leakage (propidium iodide uptake)” value was “did not”.
With `CC[C@H](C)C[C@H](C)CCCCCCCCC(=O)N[C@H]1C[C@@H](O)[C@@H](NCCN)NC(=O)[C@@H]2[C@@H](O)CCN2C(=O)[C@H]([C@H](O)CCN)NC(=O)[C@H]([C@H](O)[C@@H](O)c2ccc(O)cc2)NC(=O)[C@@H]2C[C@@H](O)CN2C(=O)[C@H]([C@@H](C)O)NC1=O` [caspofungin] the “cell leakage (propidium iodide uptake)” value was “caused rapid cell leakage”.

Same assay, conditions: arrested cells without carbon source (YP), 4 h
In the case of `CC[C@H](C)C[C@H](C)CCCCCCCCC(=O)N[C@H]1C[C@@H](O)[C@@H](NCCN)NC(=O)[C@@H]2[C@@H](O)CCN2C(=O)[C@H]([C@H](O)CCN)NC(=O)[C@H]([C@H](O)[C@@H](O)c2ccc(O)cc2)NC(=O)[C@@H]2C[C@@H](O)CN2C(=O)[C@H]([C@@H](C)O)NC1=O` [caspofungin], the “cell leakage (propidium iodide uptake)” value is reported as “diminished”.
